≈ marks a conversion by molar mass, not a printed value. Read-outs that look alike come from different tables or passages of the source. Each block holds one compound with its values, some of them ahead of it.
What was measured:
P. aeruginosa CA1216 = assay: Mouse model of skin infection, neutropenic Balb/c mice; assay type: in vivo, Pseudomonas aeruginosa; conditions: topical 200 μg/mL azithromycin with 40 mM sodium bicarbonate, 25 hours post-infection
Experimental: The effect of bicarbonate on antimicrobial activity of azithromycin against P. aeruginosa was tested in a mouse model of skin infection. Balb/c mice (6-8 weeks old, female) were rendered neutropenic. Mice were treated with cyclophosphamide on day −4 (150 mg/kg) and day −1 (100 mg/kg). The following compositions were prepared: (1) Vehicle: 5 mg/mL MC, 1% DMSO; […] A 10 mg/mL methylcellulose (MC) solution was made from methylcellulose 4000 cp. 100 mL of sterile water was heated in a microwave for 30 seconds prior to adding to MC to improve solubility. The composition was shaken on a vortex for ˜20 min to completely dissolve. The compositions for mouse treatments were prepared as follows: (1) Vehicle: 980 μL sterile water, 20 μL, DMSO, 1 mL MC (10 mg/mL); […] Each composition was vortexed after preparation. […] The inoculum was diluted and plated on LB to quantify colony-forming units (CFU). The mice were weighed. Buprenorphine IP (0.025 mg/kg) was administered as an analgesic. To anaesthetize the mice, isoflurane (gaseous anesthetic) was administered. […] The fur was stripped from the back of the neck using autoclave tape. An area of ˜2 cm^2 was tape stripped by applying and removing the tape 25-30 times. […] Mice were placed into a recovery cage and monitored until the righting reflex returned. Mice were singly housed and monitored after infection. […]

MRSA [1] = assay: Checkerboard azithromycin and sodium bicarbonate against MRSA; assay type: cell-based, Staphylococcus aureus
Experimental: (§1) Standard checkerboard broth microdilution assays were set-up in 96-well microtiter plates with serially diluted 8 (or 10) concentrations of each drug (or bicarbonate), using the conditions based on CLSI guidelines, as noted above. All checkerboards were conducted in duplicate.
(§2) To assess the dose-dependence of the interaction of azithromycin and bicarbonate, standard microbroth checkerboard techniques in MRSA and P. aeruginosa were used. For both pathogens, enhancement of the activity of azithromycin was further pronounced with increasing concentrations of sodium bicarbonate, as shown in FIG. 34A and FIG. 34B, respectively. This is consistent in various different isolates of the pathogens. Evident within these checkerboards is the inherent resistance of MRSA and P. aeruginosa to azithromycin in the absence of bicarbonate, where >64 μg/mL of azithromycin was required to inhibit growth to less than 10% growth.

P. aeruginosa [2] = assay: Checkerboard azithromycin and sodium bicarbonate against P. aeruginosa; assay type: cell-based, Pseudomonas aeruginosa
Experimental: as §1, §2

[3] = system: methicillin-resistant Staphylococcus aureus (MRSA); assay: Susceptibility testing of MRSA clinical isolates (n=100); assay type: cell-based; conditions: for MIC50 / MIC90 / MIC: Staphylococcus aureus, MRSA
Experimental: (§3) This study included one hundred (n=100) clinical isolates of methicillin-resistant Staphylococcus aureus (MRSA) and ninety-two (n=92) clinical isolates of P. aeruginosa. All samples were collected from patients at Hamilton Health Sciences hospitals (Hamilton, Ontario, Canada). Isolates, regardless of site of infection, were selected for study if they were resistant to three or more antibiotics. The isolates were cultured on plates and subsequently tested for antimicrobial susceptibility. Initial culture and antibiotic susceptibility testing were performed by Hamilton General Hospital General Microbiology Laboratory using a VITEK 2 Automated System and its Advanced Expert System (bioMerieux) and were compliant with Clinical & Laboratory Standards Institute (CLSI) antibiotic susceptibility testing formulations. Both quantitative minimum inhibitory concentration (MIC) and CLSI breakpoints were reported for each antibiotic. Additionally, a total of 7 conjunctival-sourced ocular isolates of Streptococcus pneumoniae collected by the International Health Management Associates (IHMA) from various locations in the United States were used in the study.
(§4) Antimicrobial sensitivity of the pathogenic strains was determined in compliance with the CLSI protocol. Mueller-Hinton agar plates were used to streak out bacterial species and the direct colony suspension method for inoculum preparation was used to make a suspension of the organism in saline to the density of a McFarland 0.5 turbidity standard. Cation-adjusted Mueller-Hinton broth (CA-MHB) manufactured according to ISO technical standard was used for susceptibility testing in standard 96-well microdilution plates. All antibiotics were purchased as powders from Sigma-Aldrich Canada Co. (Oakville, Canada) and dissolved in appropriate solvent to provide stock solutions as instructed by the manufacturer. Desired test antibiotic solutions were diluted in solvent at a highest test concentration resulting in 256 μg/mL. Where sodium bicarbonate was used, aqueous sterile-filtered sodium bicarbonate solution (7.5% stock) from Sigma-Aldrich Canada Co. (Oakville, Canada) was diluted to the desired concentration in CAMHB. Plates were incubated for 18 hours at 37° C. and read at 600 nm on a Tecan, infinite M1000 PRO plate reader. In accordance with CLSI, methods with appropriate medium supplements for fastidious streptococci (2.5% lysed horse blood, Innovative Research, Inc., Novi, Mich.) were used. […] All MICs in the study were conducted in duplicate.

MRSA [4] = assay: Time kill curve; assay type: cell-based, Staphylococcus aureus; conditions: 256 μg/mL azithromycin, 50 mM bicarbonate, 4 hours
Experimental: Experiments to measure the effect of bicarbonate on bactericidal activity of azithromycin were completed according to a Clinical & Laboratory Standards Institute (CLSI) protocol. Briefly, the various treatments were added to logarithmic-phase culture of MRSA in CA-MHB at the concentrations indicated in FIG. 39 and incubated at 37° C. At time points indicated in FIG. 39, cell suspensions were 10-fold serially diluted using sterile PBS buffer and spread on plates of MHB agar. Bacterial colonies were counted after cultivation at 37° C. for 24 hours.

P. aeruginosa [5] = assay: Susceptibility testing of P. aeruginosa clinical isolates (n=92); assay type: cell-based, Pseudomonas aeruginosa; conditions: Pseudomonas aeruginosa, P. aeruginosa, n = 92 isolates, bicarbonate as in label
Experimental: as §3, §4

S. pneumoniae = assay: Susceptibility testing of conjunctival isolates of S. pneumoniae; assay type: cell-based; conditions: Streptococcus pneumoniae, bicarbonate as in label
Experimental: as §3
Antimicrobial sensitivity of the pathogenic strains was determined in compliance with the CLSI protocol. […] Plates were incubated for 18 hours at 37° C. and read at 600 nm on a Tecan, infinite M1000 PRO plate reader. […]

[6] = system: macrolide-resistant strain of MRSA; assay: Cellular accumulation of azithromycin by LC-MS/MS; assay type: cell-based, Staphylococcus aureus; conditions: azithromycin 512 μg/mL, 10 minutes contact
Experimental: A method to measure azithromycin accumulation into a macrolide-resistant strain of MRSA was adapted from a protocol described in Richter et al., Nature 545, pp. 299-304 (2017). Liquid chromatography with tandem mass spectroscopy (LC-MS/MS) was used to quantify accumulation of azithromycin in the absence or presence of 50 mM sodium bicarbonate. Azithromycin was used at 512 μg/mL (because the strain is macrolide-resistant). The azithromycin (in the absence or presence of bicarbonate) was in contact with the MRSA for 10 minutes.

E. coli [7] = assay: microbe, parasite or virus in culture; assay type: cell-based, Escherichia coli
S. aureus [8] = assay: FIC index of pentamidine combined with various salts (checkerboard); assay type: cell-based, Staphylococcus aureus; conditions: combination of pentamidine isethionate with each salt; FICI≤0.5 synergy, 1-2 additivity, >4 antagonism
Experimental: (§5) In the following experiments, bacterial cells were cultured in 96-well microtiter plates in cation-adjusted Mueller-Hinton Broth (MHB) for 18 h at 37° C. The main strains used were E. coli (K-12 BW25113) (placed in stationary incubator) and S. aureus (Newman Strain) (incubated at 250 r.p.m). Knockout strains (ΔtolcC and ΔychM) were used from the Keio knockout collection (Baba et al., Construction of Escherichia coli K-12 in-frame, single-gene knockout mutants: the Keio collection. Mol Syst Biol 2, 2006 0008, doi:10.1038/msb4100050 (2006)). For MIC determination and checkerboard analyses, Clinical & Laboratory Standards Institute (CLSI) protocol was used. […] DiSC3 loading of S. aureus cells was performed as previously described (Farha et al., Collapsing the proton motive force to identify synergistic combinations against Staphylococcus aureus. Chemistry & biology 20, 1168-1178, doi:10.1016/j.chembiol.2013.07.006 (2013)). CCCP concentration of 20 μM was used. pH adjustments were made by addition of HCl or NaOH. INT assay and ATP bioluminescence assays were performed as previously described (Farha et al., Collapsing the proton motive force to identify synergistic combinations against Staphylococcus aureus. Chemistry & biology 20, 1168-1178, doi:10.1016/j.chembiol.2013.07.006 (2013)). For chemical-genomic studies, the Keio library was grown overnight in cation-adjusted MHB broth, in 384-well plates. From these, treatment plates (25 mM sodium bicarbonate, or a sterile water control) were inoculated and grown for 15 hours at 37° C., in a stationary incubator. Data was normalized according to Mangat et al (Mangat et al., Rank ordering plate data facilitates data visualization and normalization in high-throughput screening. J Biomol Screen 19, 1314-1320, doi:10.1177/1087057114534298 (2014)), with gene products and GO terms mined from EcoCyc. The GFP promoter library (Keseler et al., EcoCyc: fusing model organism databases with systems biology. Nucleic Acids Res 41, D605-612, doi:10.1093/nar/gks1027 (2013)) was grown for 18 hours at ambient temperature with the same inoculation strategy as with the Keio collection. The analysis pipeline of Zaslaver et al (Zaslaver et al., A comprehensive library of fluorescent transcriptional reporters for Escherichia coli. Nat Methods 3, 623-628, doi:10.1038/nmeth895 (2006)) was used to generate maps of promoter activity, from which lists of promoters with increased or decreased activity were compiled.

S. aureus [9] = assay: microbe, parasite or virus in culture; conditions: Staphylococcus aureus
Klebsiella pneumoniae = assay: MIC determination against Klebsiella pneumoniae; assay type: cell-based
Experimental: as §5, with “The GFP promoter library (Keseler et al., EcoCyc: fusing model organism databases with systems biology. Nucleic Acids Res 41, D605-612, doi:10.1093/nar/gks1027 (2013)) was grown for 18 hours at ambient temperature with the same inoculation strategy as with the Keio collection. The analysis pipeline of Zaslaver et al (Zaslaver et al., A comprehensive library of fluorescent transcriptional reporters for Escherichia coli. Nat Methods 3, 623-628, doi:10.1038/nmeth895 (2006)) was used to generate maps of promoter activity, from which lists of promoters with increased or decreased activity were compiled.” left out

Pseudomonas aeruginosa = assay: MIC determination against Pseudomonas aeruginosa; assay type: cell-based
Experimental: as §5, with “The GFP promoter library (Keseler et al., EcoCyc: fusing model organism databases with systems biology. Nucleic Acids Res 41, D605-612, doi:10.1093/nar/gks1027 (2013)) was grown for 18 hours at ambient temperature with the same inoculation strategy as with the Keio collection. The analysis pipeline of Zaslaver et al (Zaslaver et al., A comprehensive library of fluorescent transcriptional reporters for Escherichia coli. Nat Methods 3, 623-628, doi:10.1038/nmeth895 (2006)) was used to generate maps of promoter activity, from which lists of promoters with increased or decreased activity were compiled.” left out

S. aureus [10] = conditions: 25 mM sodium bicarbonate, BCECF-AM
Experimental: S. aureus cells were loaded with the pH sensitive dye BCECF-AM and were washed and resuspended in PBS. Following baseline readings, PBS (grey circles) or 25 mM sodium bicarbonate (black circles) were added at the arrow and fluorescence measured over time. A standard curve for intracellular pH calibration was used to calculate intracellular pH.

Enterococcus faecium = system: Enterococcus faecium
Experimental: as §5

E. coli [11] = conditions: 25 mM sodium bicarbonate
Experimental: as §5

S. aureus [12] = conditions: S. aureus grown with 25 mM sodium bicarbonate vs untreated
Experimental: as §5

Acinetobacter baumannii = assay: MIC determination against Acinetobacter baumannii; assay type: cell-based; conditions: Acinetobacter baumannii
Experimental: as §5

[13] = increasing concentrations of sodium bicarbonate
[14] = MRSA isolates, in the presence of 50 mM bicarbonate
[15] = n = 100 isolates, bicarbonate as in label

- MIC50 [3, 14]: 1 µg/mL
- MIC90 [3, 14]: 2 µg/mL
- MIC50 [3, 15]: 128 µg/mL (≈ 171 µM)
- MIC90 [3, 15]: > 256 µg/mL
- MIC ([3]; n = 100 isolates, bicarbonate as in label, read-out: Maximum MIC obtained): > 256 µg/mL
- MIC ([3]; n = 100 isolates, bicarbonate as in label, read-out: Minimum MIC obtained): 1 µg/mL (≈ 1.34 µM)
- MIC50 (P. aeruginosa [5]): 64 µg/mL (≈ 85.4 µM)
- MIC90 (P. aeruginosa [5]): 256 µg/mL (≈ 342 µM)
- MIC (P. aeruginosa [5]; read-out: Maximum MIC obtained): > 256 µg/mL
- MIC (P. aeruginosa [5]; read-out: Minimum MIC obtained): 0.5 µg/mL (≈ 0.668 µM)
- MIC (S. pneumoniae; macrolide-resistant S. pneumoniae strain, read-out: MIC, #1186268 (R)): 32 µg/mL (≈ 42.7 µM)
- MIC (S. pneumoniae; macrolide-susceptible S. pneumoniae strain, read-out: MIC, #1173373 (S)): 0.25 µg/mL (≈ 0.334 µM)
Compound: CC[C@H]1OC(=O)[C@H](C)[C@@H](O[C@H]2C[C@@](C)(OC)[C@@H](O)[C@H](C)O2)[C@H](C)[C@@H](O[C@@H]2O[C@H](C)C[C@H](N(C)C)[C@H]2O)[C@](C)(O)C[C@@H](C)CN(C)[C@H](C)[C@@H](O)[C@]1(C)O [Azithromycin]
- effect of bicarbonate on antimicrobial activity in vivo (CFU) (P. aeruginosa CA1216): enhanced
- concentration required to inhibit growth to less than 10% growth (MRSA [1]; in the absence of bicarbonate): > 64 µg/mL
- dose-dependence of the interaction with sodium bicarbonate (MRSA [1]; [13]): enhancement
- concentration required to inhibit growth to less than 10% growth (P. aeruginosa [2]; in the absence of bicarbonate): > 64 µg/mL
- dose-dependence of the interaction with sodium bicarbonate (P. aeruginosa [2]; [13]): enhancement
- eradication rate ([3]; MRSA isolates, 50 mM bicarbonate added): 90%
- eradication rate ([3]; MRSA isolates, without bicarbonate): 7%
- bactericidal action in the presence vs absence of bicarbonate (MRSA [4]): superior bactericidal action
- increase in accumulation in the presence of 50 mM bicarbonate [6]: approximately 2.5 fold

- MIC of dirithromycin in the presence of the salt (E. coli [7]; E. coli, salt at 25 mM, pH adjusted to 7.4): 4 µg/mL
- MIC (E. coli [7]; Escherichia coli): 100 mM
- MIC (S. aureus [9]): 50 to 100 mM
- MIC (Klebsiella pneumoniae): 100 mM
- MIC (Pseudomonas aeruginosa): >100 mM
- MIC (Enterococcus faecium): 50 to 100 mM
- MIC (Acinetobacter baumannii): 50 mM
Compound: O=C([O-])O.[Na+] [Sodium bicarbonate]
- FIC Index (with pentamidine in S. aureus) (S. aureus [8]): 0.31
- change in cytoplasmic pH (S. aureus [10]): rapid cytoplasmic alkalinization
- reduction of intracellular ATP levels compared to untreated control (E. coli [11]): ~30%
- reduction of cellular respiration (E. coli [11]; INT to INT-formazan, 60 min): 70%
- uptake of DiSC3(5) (S. aureus [12]): increased uptake
